Regarding `CC(C)(c1cc(Br)c(OCC(Br)CBr)c(Br)c1)c1cc(Br)c(OCC(Br)CBr)c(Br)c1` (configuration not stated), the ready biodegradability result is “not readily biodegradable”.

The boiling point is the temperature of boiling at a given pressure. As a reminder, the melting point is the temperature of the solid-liquid transition. The molecule `Fc1ccccc1Cl` yielded a boiling point of 138 °C and a melting point of -43 °C.

Regarding `C[C@]12CC[C@H]3[C@@H](CCC4=CC(=O)C=C[C@@]43C)[C@@H]1CC[C@H]2O`, the melting point is 165 °C.

On to `NC(=O)CBr`, for which the melting point is 89 °C.

On to `Oc1ccc(Cl)cc1`, for which the boiling point is 220 °C, the log10 vapour pressure (mmHg) is -1.05, the melting point stood at 42.7 °C and the ready biodegradability result is listed as “not readily biodegradable”.

In turn, `O=C(OCCO)c1ccccc1O` gave a melting point of 37 °C.

`CC/C=C\CC=O` showed a boiling point of 121 °C.

For the molecule `CNC1(c2ccccc2Cl)CCCCC1=O` (configuration not stated), the melting point worked out at 92.5 °C.

Regarding `Clc1cc(Cl)c(-c2c(Cl)cc(Cl)c(Cl)c2Cl)cc1Cl`, the melting point is 83 °C.

The molecule `COc1ccc(C(C)=O)c(O)c1` gave a melting point of 52.5 °C.

`CC1OC1C` (configuration not stated) showed a boiling point of 58.2 °C and a melting point of -82.5 °C.

Turning to `O=C(O)c1ccc(O)cc1`, the log10 Koa stood at 8.08, the log10 Koc (L/kg) was 1.43, the log10 vapour pressure (mmHg) is -6.72 and the melting point amounted to 214 °C. Besides, the ready biodegradability result was “readily biodegradable”.

The molecule `O=S1CCC1` gave a melting point of 31.5 °C.

The molecule `O=Cc1cc(Cl)ccc1O` yielded a melting point of 100 °C.

In the case of `CC(C)CCCC(C)(C)C`, the boiling point amounted to 149 °C and the melting point was -105 °C.

Turning to `CC(CCl)CCl`, the boiling point worked out at 136 °C.

Regarding `CCCCCCCCCCCC[C@H](C)O`, the boiling point turned out to be 284 °C and the melting point was determined as 34 °C.

Turning to `CC(C)CC(C)CC(C)C`, the boiling point turned out to be 148 °C.

Take `C=CC(C)CCC=C(C)C` (configuration not stated): the ready biodegradability entry is on record as “readily biodegradable”.

As to `Nc1cc([N+](=O)[O-])cc([N+](=O)[O-])c1`, the log10 Koc (L/kg) was 2.55 and the melting point worked out at 163 °C.

As to `FC(F)(F)c1cccc(Cl)c1`, the boiling point came to 138 °C, the melting point was -56 °C and the ready biodegradability result was “not readily biodegradable”.

In turn, `CCCC=CCC=O` yielded a boiling point of 151 °C.

`C1CC12CC2` registered a boiling point of 39 °C, a log10 vapour pressure (mmHg) of 2.66 and a melting point of -135 °C.

`Nc1ccc2c(c1)CCC2`: the boiling point was 248 °C and the melting point is 37.5 °C.

Consider `CCCC(CCC)C(=O)O`, for which the boiling point is 222 °C and the ready biodegradability result is given as “readily biodegradable”.

In the case of `CC1CCC2C(=O)OC(=O)C2C1` (configuration not stated), the ready biodegradability entry was “not readily biodegradable”.

Regarding `O=[N+]([O-])c1ccccc1O`, the boiling point turned out to be 216 °C, the log10 Henry constant (atm·m³/mol) is -4.89, the log10 vapour pressure (mmHg) is -0.947 and the melting point came out at 44.8 °C. In addition, the ready biodegradability result is given as “not readily biodegradable”.

`COc1ccc(-c2cc(=O)c3c(O)c(OC)c(O)cc3o2)cc1` showed a melting point of 221 °C.

As to `CCC(C)S` (configuration not stated), the boiling point is 84.5 °C, the log10 vapour pressure (mmHg) was found to be 1.91 and the melting point is -165 °C.

The molecule `CC#Cc1cc(C)nc(Nc2ccccc2)n1` yielded a log10 vapour pressure (mmHg) of -6.76 and a melting point of 133 °C.

`CCCS` came in with a boiling point of 67.8 °C, a log10 Henry constant (atm·m³/mol) of -2.39, a log10 vapour pressure (mmHg) of 2.19 and a melting point of -113 °C.

`O=C1CC=CCC1` showed a boiling point of 170 °C.

As for `CCOc1ccc(Br)cc1`, the boiling point was found to be 231 °C and the melting point amounted to 4 °C.

Molecule `C=CCC(CC=C)(C(=O)OCC)C(=O)OCC` had a boiling point of 244 °C.

For `CCOc1ccccc1[N+](=O)[O-]`, the boiling point is 267 °C and the melting point stood at 2.2 °C.

In turn, `Brc1ccc(Oc2ccccc2)c(Br)c1` showed a log10 Koa of 8.37.

For the molecule `CCC(Cl)CC`, the boiling point was 97.5 °C, the log10 vapour pressure (mmHg) amounted to 1.67 and the melting point is -105 °C.

As for `CC(C)C1(C)N=C(c2ncccc2C(=O)O)NC1=O` (configuration not stated), the log10 Koc (L/kg) came to 2 and the melting point was determined as 171 °C.

Consider `O=[N+]([O-])c1cccc(I)c1`, for which the boiling point is 280 °C and the melting point stood at 38.5 °C.

With `CC(=O)OCC(=O)c1ccccc1`, the boiling point came out at 270 °C and the melting point amounted to 49 °C.

As to `COc1ccc2c3c1O[C@H]1[C@@H](O)C=C[C@H]4[C@@H](C2)N(C)CC[C@@]341`, the melting point was 158 °C.

`C#CC(C)(C)NC(=O)c1ccc(OC)cc1` registered a log10 Koc (L/kg) of 1.83.

Take `CCCN(CCC)C(=O)SCc1ccccc1`: the log10 vapour pressure (mmHg) is -6.29.

`O=C(O)Cc1cc(I)c(Oc2ccc(O)c(I)c2)c(I)c1` showed a melting point of 182 °C.

The molecule `C1CSCS1` yielded a boiling point of 175 °C and a melting point of -50 °C.

Turning to `C[Si](C)(C)[Si](C)(C)C`, the boiling point was found to be 114 °C and the melting point stood at 13.5 °C.

For `OCC1CCCO1` (configuration not stated), the boiling point is 178 °C, the log10 vapour pressure (mmHg) is -0.0964 and the ready biodegradability entry is listed as “readily biodegradable”.

Regarding `CCCC1CCNCC1`, the boiling point came out at 173 °C.

Source of the values: the OPERA property sets (Mansouri et al. 2018).
